Patent US20260193668A1, “NOVEL PEPTIDES AND USE THEREOF FOR MODULATING PROTEIN ACCUMULATION” (UNIVERSITE TOULOUSE III - PAUL SABATIER, priority 2022, published 2026)

Test system: Botrytis cinerea
Assay: Infection assay of A. thaliana leaves inoculated with B. cinerea
Format: in vivo
Conditions: 100 μM peptide, compared with plants treated with an irrelevant peptide
Procedure: (§1) (a, b) Length of primary roots of A. thaliana seedlings treated with a Scrambled cPEPdcl1 or with a cPEPdcl1. (c) Relative chlorophyll content of A. thaliana seedlings treated with the corresponding peptide. (d) Resumption of growth of A. thaliana seedlings after heat shock at 45° C. for 45 min and treated with the corresponding peptide. (e) Relative lesion area of A. thaliana seedlings infected with B. cinerea and treated with the indicated peptide. (f) Measurement of the flowering day of A. thaliana plants treated with the indicated peptides. (g, h) Flowering day of A. thaliana plants treated with an irrelevant peptide or a mixture of cPEPs (targeting EIN2, BR11, BAK1 and WUS). (i, j) Leaf area of A. thaliana plants treated with an irrelevant peptide or a mixture of cPEPs (targeting EIN2, BR11, BAK1 and WUS).
(a) Quantification of CPK3 expression, using CPK3 antibodies, in peptide-treated A. thaliana plants. (b-c) Infection assay of peptide-treated A. thaliana leaves inoculated with B. cinerea spores.
Wild-type or mutant A. thaliana leaves were sprayed daily with 100 μM of peptide or 100 μM of the corresponding scramble version for 3 days. Six hours after the last treatment, five mature leaves per plant were inoculated with a 5 μL droplet of 2.5×10^5 spores/mL of Botrytis cinerea strain B05.10 diluted in 100 μM of peptide or its corresponding scramble version. After inoculation, plants were maintained at 100% relative humidity. Then, a 2 μL droplet of 100 μM of peptide or 100 μM of the corresponding scramble version was deposited daily on B. cinerea-infected leaves for 3 days (until symptoms appeared). Leaves were removed from the plants to determine lesion areas using the ImageJ programme. For tomato, the protocol was the same except that inoculation was carried out with 5,000 B. cinerea spores, without peptides. Peptides were added 1 h after inoculation (1 μL of 500 μM) and each day for two days with 5 μL of 100 μM peptide. For infection of M. truncatula with A. euteiches, plants were grown on agar medium and treated with 10 μL of 100 μM peptide, 24 h before, 24 h and 72 h after infection with 10 μL (1000 spores) of A. euteiches spores. Plants were harvested 7 days after inoculation for RNA extraction.

Row | Substance | lesion size (plant defence against Botrytis cinerea)
1 | SEQ ID NO: 162 (RSSKTELWTR; cPEPcpk3) | decrease
2 | SEQ ID NO: 187 (KEPEQRKRKS; cPEPmapkkk3) | decrease
3 | SEQ ID NO: 188 (PLTGGRRDSK; cPEPmapkkk5_1) | decrease
4 | SEQ ID NO: 194 (ERKFRLHKSP; cPEPabcg34) | decrease
5 | SEQ ID NO: 195 (IRLDTGEEPD; cPEPagb1) | decrease
6 | cPEPjar1 (PETNFERDSS; cPEPjar1) [SEQ ID NO: 192, cPEP targeting the A. thaliana plant defence regulator JAR1] | decrease

Test system: M. truncatula seedlings
Assay: Formation of lateral roots of M. truncatula seedlings
Format: in vivo, Medicago truncatula
Conditions: M. truncatula WT seedlings
Text: (a) FRET-FLIM analysis of the interaction between cPEPnsp1-FAM and NSP1 (left) or NSP1ΔcPEP (right) in planta. (b) qRT-PCR quantification of NSP1 expression in M. truncatula roots treated with cPEPnsp1 or Scrambled cPEPnsp1. (c) GUS quantification of peptide-treated M. truncatula roots carrying the Pro NSP1-NSP1-GUS fusion. (d, e) Quantification of NSP1 expression in N. benthamiana leaves after infiltration of different constructs: ‘wild type’ i.e. version of NSP1 wherein the cPEP sequence has been deleted (NSP1 ΔcPEP) or version of NSP1 wherein the cPEP sequence has been replaced by an artificial sequence (NSP1 ΔcPEP-cPEPartificial), with an empty vector (control) or cPEPnsp1 or cPEPartificial. (f, g) Formation of lateral roots of M. truncatula WT seedlings, nsp1 or overexpressing NSP1, in response to cPEPnsp1 or Scrambled cPEPnsp1. (h, i) Quantification of nodules on roots of M. truncatula roots treated with an irrelevant peptide or cPEPskl. […]
In order to verify whether cPEPs can target any protein, the activity of 12 cPEPs targeting 12 different proteins for which antibodies were available was studied and validated in three different plant species. The question was whether the increase in the quantity of proteins observed after treatment with cPEP was sufficient to modulate plant development. […]

Row | Substance | amount of lateral roots
7 | cPEPnsp1 (DYGTKSNIRS; cPEPnsp1_3) | decreased

Same assay, conditions: nsp1 mutant and NSP1-overexpressing M. truncatula

Row | Substance | sensitivity of lateral root formation to the peptide
8 | cPEPnsp1 (DYGTKSNIRS; cPEPnsp1_3) | insensitive

Test system: luciferase mRNA
Assay: RNA-IP followed by PCR on plants treated with HA-tagged peptides
Format: binding, Arabidopsis thaliana
Conditions: anti-HA magnetic beads
Text: Analysis of luciferase expression in A. thaliana constitutively expressing the LUC transgene. (a) Agarose gel after PCR amplification of RNA obtained by immunoprecipitation using anti-HA magnetic beads, followed by RT-PCR, on plants treated with the indicated peptide (SC-HA: Scrambled cPEPluc-HA; Luc-HA: cPEPluc-HA). (b) Relative expression of the luciferase transgene in plants treated with the indicated peptide, quantified by RT-qPCR. (c-e) Relative quantification of LUC in plants treated with the indicated peptide. (f, g) Ratio between induction and quantification of LUC in plants treated with cPEPluc compared to plants treated with Scrambled cPEPluc, using different peptide concentrations (f) or taken at different time points (g). (h) Transcriptomic analysis of plants treated with cPEPluc-HA compared to plants treated with Scrambled cPEPluc-HA. (i) Proteomic analysis of plants treated with cPEPluc-HA compared to plants treated with Scrambled cPEPluc-HA. Protein expression was analysed by Western blots and quantified using ImageJ.
RNA co-immunoprecipitation was adapted from Merret et al. (Plant Physiol. 174:1216-1225. 2017). 400 mg of tissue powder was incubated in 3 mL of lysis buffer (200 mM Tris, pH 9.0, 110 mM potassium acetate, 0.5% Triton X-100, 0.1% Tween© 20, 5 mM DTT, 1.5% protease inhibitor and 80 units·ml-1 RNasin). […]

Row | Substance | interaction with luciferase mRNA (RNA-IP followed by PCR)
9 | SEQ ID NO: 386: Scrambled peptide corresponding to HA-tagged cPEPluc (RNYKNGRTHLYPYDVPDYA; Scrambled cPEPluc-HA) [reference compound] | could not
10 | cPEPluc-HA: HA-tagged cPEPluc (KRYGLNTNHRYPYDVPDYA; cPEPluc-HA) | able to interact

Test system: A. thaliana plants
Assay: Flowering day of A. thaliana plants
Format: in vivo, Arabidopsis thaliana
Conditions: sprayed with 10 μM peptide three times a week until flowering
Procedure: as §1
N. benthamiana plants were treated by spraying the leaves 24 h before harvesting. For Luc assays, 100 μL of MS/2 liquid medium containing the peptides was added to each well. 5 μL of luciferin was added and luciferase activity was read 30 min later using a spectrophotometer. All other assays were performed by spraying or watering the plants. To quantify the protein level induced by cPEPs in Arabidopsis, rosettes were sprayed daily with 100 μM of peptide or its control for 5 days. Leaves were harvested 6 h after the last treatment for western blot analysis. For the flowering assay and chlorophyll content, 10-day-old Arabidopsis plants were sprayed with 500 μL of 10 μM peptide three times a week until flowering. Chlorophyll content was measured using the SPAD chlorophylometer (Konica Minolta). Leaf area was measured using ImageJ software. Barbarea vulgaris and A. hypochondriacus seedlings were treated immediately after sowing and 3 times a week with 500 μL of a 20 μM mixture of each peptide. For western blotting, a heat shock was performed by placing 20-day-old plants grown in 24-well plates on MS/2 for 90 min at 37° C. before harvesting. The plants were treated with 100 μM of peptide for 24 h. For the heat shock resistance test on A. thaliana, 3-day-old seedlings were treated for three days with 100 μM of peptide before placing the plants at 45° C. for 45 min. The plants were placed in a growth chamber to recover and treated 24 h after heat shock with 100 μM of peptide. For soybean heat shock, one-week-old seedlings were treated for 48 h, 24 h and 30 min before being placed at 45° C. for 24 h. For soybean growth, seedlings were treated 3 times a week for a fortnight with 500 μL of 100 μM peptide.

Row | Substance | plant development, measured by the day of flowering
11 | SEQ ID NO: 181 (NKGKTVEGWR; cPEPtap46) | decrease
12 | SEQ ID NO: 182 (ASGNETDEYD; cPEPspt) | decrease
13 | SEQ ID NO: 183 (SDFSSKYRED; cPEPga2ox7) | decrease
14 | SEQ ID NO: 184 (LRETDLKDRR; cPEPphyb) | decrease
15 | SEQ ID NO: 185 (VERRETPSGE; cPEPhag5) | decrease
16 | SEQ ID NO: 186 (HGEARDSEEV; cPEPshr) | decrease
17 | SEQ ID NO: 198 (RHRNLVRLQG; AhBRI1) | decrease
18 | SEQ ID NO: 199 (ARGLAYLHE; AhBAK1) | decrease
19 | SEQ ID NO: 204 (NPVERSRHRD; cPEPein2_1) | decrease
20 | cPEPmrb1 (NSEITKTAND; cPEPmrb1) [SEQ ID NO: 180] | increased
21 | cPEPshy2 (EENRSELLQR; cPEPshy2) [SEQ ID NO: 178] | increased
22 | cPEPwus (RWTPTTEQIK; cPEPwus) [SEQ ID NO: 196] | decrease

Test system: Aphanomyces euteiches
Assay: M. truncatula seedlings infected with A. euteiches
Format: in vivo
Conditions: 100 μM peptide
Text: (a) FRET-FLIM analysis of the interaction between cPEPnsp1-FAM and NSP1 (left) or NSP1ΔcPEP (right) in planta. (b) qRT-PCR quantification of NSP1 expression in M. truncatula roots treated with cPEPnsp1 or Scrambled cPEPnsp1. (c) GUS quantification of peptide-treated M. truncatula roots carrying the Pro NSP1-NSP1-GUS fusion. (d, e) Quantification of NSP1 expression in N. benthamiana leaves after infiltration of different constructs: ‘wild type’ i.e. version of NSP1 wherein the cPEP sequence has been deleted (NSP1 ΔcPEP) or version of NSP1 wherein the cPEP sequence has been replaced by an artificial sequence (NSP1 ΔcPEP-cPEPartificial), with an empty vector (control) or cPEPnsp1 or cPEPartificial. (f, g) Formation of lateral roots of M. truncatula WT seedlings, nsp1 or overexpressing NSP1, in response to cPEPnsp1 or Scrambled cPEPnsp1. (h, i) Quantification of nodules on roots of M. truncatula roots treated with an irrelevant peptide or cPEPskl. (j) Root development of M. truncatula seedlings infected with A. euteiches and treated with an irrelevant peptide or cPEPrh10. (k) Relative expression of A. euteiches α-tubulin in M. truncatula seedlings infected with A. euteiches and treated with an irrelevant peptide or cPEPrh10.
Quantification of mRNAs was performed by qRT-PCR using appropriate primer pairs selected from the sequences: SEQ ID NOs: 367 to 374. […]

Row | Substance | root development (resistance to the pathogen)
23 | SEQ ID NO: 412 (QRLSLRNPLK; cPEPrh10) | increased

Same assay, conditions: 100 μM peptide, 7 days after inoculation

Row | Substance | expression of A. euteiches α-tubulin in roots
24 | SEQ ID NO: 412 (QRLSLRNPLK; cPEPrh10) | decreased

Test system: A. thaliana seedlings
Assay: Relative chlorophyll content of A. thaliana
Format: in vivo, Arabidopsis thaliana
Conditions: sprayed with 10 μM peptide three times a week
Procedure: as §1
N. benthamiana plants were treated by spraying the leaves 24 h before harvesting. For Luc assays, 100 μL of MS/2 liquid medium containing the peptides was added to each well. 5 μL of luciferin was added and luciferase activity was read 30 min later using a spectrophotometer. […] To quantify the protein level induced by cPEPs in Arabidopsis, rosettes were sprayed daily with 100 μM of peptide or its control for 5 days. […] Chlorophyll content was measured using the SPAD chlorophylometer (Konica Minolta). Leaf area was measured using ImageJ software. […]

Row | Substance | chlorophyll content
25 | SEQ ID NO: 406 (EKVVERRQRR; cPEPabi5) | decreasing
26 | SEQ ID NO: 407 (EWKKVKGKMS; cPEPsgr1) | increasing
